Data from patent publication US9617253B2, “Molecules having pesticidal utility, and intermediates, compositions, and processes, related thereto” (Dow AgroSciences LLC, priority 2015, dated 2017).

Assays:
[1] = test system: Beet Armyworm (Spodoptera exigua, LAPHEG); assay: Bioassay on Beet Armyworm (BAW), 128-well diet tray assay; format: in vivo; conditions: 168 h, second instar BAW larvae, 50 μg/cm^2 on artificial diet, 25° C., five to seven days, average of eight wells, read-out: BAW % Control (or Mortality) rating
Experimental: (§1) Certain molecules disclosed in this document were tested against BAW and CL using procedures described in the following examples. In the reporting of the results, the “BAW & CL Rating Table” was used (See Table Section).
Bioassays on BAW were conducted using a 128-well diet tray assay. One to five second instar BAW larvae were placed in each well (3 mL) of the diet tray that had been previously filled with 1 mL of artificial diet to which 50 μg/cm^2 of the test molecule (dissolved in 50 μL of 90:10 acetone-water mixture) had been applied (to each of eight wells) and then allowed to dry. Trays were covered with a clear self-adhesive cover, vented to allow gas exchange, and held at 25° C., 14:10 light-dark for five to seven days. Percent mortality was recorded for the larvae in each well; activity in the eight wells was then averaged. The results are indicated in the table entitled “Table ABC: Biological Results” (See Table Section).

[2] = test system: Cabbage Looper (Trichoplusia ni, TRIPNI); assay: Bioassay on Cabbage Looper (CL), 128-well diet tray assay; format: in vivo; conditions: 168 h, second instar CL larvae, 50 μg/cm^2 on artificial diet, 25° C., five to seven days, average of eight wells, read-out: CL % Control (or Mortality) rating
Experimental: as §1
Bioassays on CL were conducted using a 128-well diet tray assay. One to five second instar CL larvae were placed in each well (3 mL) of the diet tray that had been previously filled with 1 mL of artificial diet to which 50 μg/cm^2 of the test molecule (dissolved in 50 μL of 90:10 acetone-water mixture) had been applied (to each of eight wells) and then allowed to dry. Trays were covered with a clear self-adhesive cover, vented to allow gas exchange, and held at 25° C., 14:10 light-dark for five to seven days. Percent mortality was recorded for the larvae in each well; activity in the eight wells was then averaged. The results are indicated in the table entitled “Table ABC: Biological Results” (See Table Section).

Row | SMILES | mortality at 50 µg/cm2 [1] [%] | mortality at 50 µg/cm2 [2] [%]
1 | CCCc1ccc(C)cc1N1C(=O)CS/C1=N\C(=O)Nc1ccc(OCc2ncn(-c3ccc(OC(F)(F)F)cc3)n2)cc1OC [F33, (Z)-1-(2-Methoxy-4-((1-(4-(trifluoromethoxy)phenyl)-1H-1,2,4-triazol-3-yl)methoxy)phenyl)-3-(3-(5-methyl-2-propylphenyl)-4-oxothiazolidin-2-ylidene)urea] | 50 to 100 | 50 to 100
2 | CCCc1ccc(C)cc1N1C(=O)CS/C1=N\C(=O)Nc1ccc(OCc2ncn(-c3ccc(OC(F)(F)F)cc3)n2)c(Cl)c1 [F39, (Z)-1-(3-Chloro-4-((1-(4-(trifluoromethoxy)phenyl)-1H-1,2,4-triazol-3-yl)methoxy)phenyl)-3-(3-(5-methyl-2-propylphenyl)-4-oxothiazolidin-2-ylidene)urea] | 50 to 100 | 50 to 100
3 | Cc1ccc(C(C)C)c(N2C(=O)CS/C2=N\C(=O)Nc2ccc(OCc3ncn(-c4ccc(OC(F)(F)F)cc4)n3)cc2)c1 [F15, (Z)-1-(3-(2-Isopropyl-5-methylphenyl)-4-oxothiazolidin-2-ylidene)-3-(4-((1-(4-(trifluoromethoxy)phenyl)-1H-1,2,4-triazol-3-yl)methoxy)phenyl)urea] | 50 to 100 | 50 to 100
4 | COCc1ccc(C)cc1N1C(=O)CS/C1=N\C(=O)Nc1ccc(OCc2ncn(-c3ccc(OC(F)(F)F)cc3)n2)c(F)c1 [F37, (Z)-1-(3-Fluoro-4-((1-(4-(trifluoromethoxy)phenyl)-1H-1,2,4-triazol-3-yl)methoxy)phenyl)-3-(3-(2-(methoxymethyl)-5-methylphenyl)-4-oxothiazolidin-2-ylidene)urea] | 50 to 100 | 50 to 100
5 | Cc1ccc(C(C)C)c(N2C(=O)CS/C2=N\C(=O)Nc2ccc(OCc3ncn(-c4ccc(OC(F)(F)F)cc4)n3)c(F)c2)c1 [F35, (Z)-1-(3-Fluoro-4-((1-(4-(trifluoromethoxy)phenyl)-1H-1,2,4-triazol-3-yl)methoxy)phenyl)-3-(3-(2-isopropyl-5-methylphenyl)-4-oxothiazolidin-2-ylidene)urea] | 50 to 100 | 50 to 100
6 | Cc1ccc(C(C)C)c(N2C(=O)CS/C2=N\C(=O)Nc2c(F)cc(OCc3ncn(-c4ccc(OC(F)(F)F)cc4)n3)cc2F)c1 [F18, (Z)-1-(2,6-Difluoro-4-((1-(4-(trifluoromethoxy)phenyl)-1H-1,2,4-triazol-3-yl)methoxy)phenyl)-3-(3-(2-isopropyl-5-methylphenyl)-4-oxothiazolidin-2-ylidene)urea] | 50 to 100 | 50 to 100
7 | Cc1ccc(C(C)C)c(N2C(=O)CS/C2=N\C(=O)Nc2ccc(COc3ncn(-c4ccc(OC(F)(F)F)cc4)n3)cc2F)c1 [F2, (Z)-1-(2-Fluoro-4-(((1-(4-(trifluoromethoxy)phenyl)-1H-1,2,4-triazol-3-yl)oxy)methyl)phenyl)-3-(3-(2-isopropyl-5-methylphenyl)-4-oxothiazolidin-2-ylidene)urea] | 50 to 100 | 50 to 100
8 | Cc1ccc(C(C)C)c(N2C(=O)CS/C2=N\C(=O)Nc2ccc(OCc3ncn(-c4ccc(OC(F)(F)F)cc4)n3)c(Cl)c2)c1 [F38, (Z)-1-(3-Chloro-4-((1-(4-(trifluoromethoxy)phenyl)-1H-1,2,4-triazol-3-yl)methoxy)phenyl)-3-(3-(2-isopropyl-5-methylphenyl)-4-oxothiazolidin-2-ylidene)urea] | 50 to 100 | 50 to 100
9 | CCCc1ccc(C)cc1N1C(=O)CS/C1=N\C(=O)Nc1ccc(COc2ncn(-c3ccc(OC(F)(F)F)cc3)n2)c(OC)c1 [F10, (Z)-1-(3-Methoxy-4-(((1-(4-(trifluoromethoxy)phenyl)-1H-1,2,4-triazol-3-yl)oxy)methyl)phenyl)-3-(3-(5-methyl-2-propylphenyl)-4-oxothiazolidin-2-ylidene)urea] | 0 | 0
10 | Cc1ccc(C(C)C)c(N2C(=O)CS/C2=N\C(=O)Nc2ccc(OCc3ncn(-c4ccc(OC(F)(F)F)cc4)n3)cc2Cl)c1 [F29, (Z)-1-(2-Chloro-4-((1-(4-(trifluoromethoxy)phenyl)-1H-1,2,4-triazol-3-yl)methoxy)phenyl)-3-(3-(2-isopropyl-5-methylphenyl)-4-oxothiazolidin-2-ylidene)urea] | 50 to 100 | 50 to 100
11 | COc1cc(NC(=O)/N=C2\SCC(=O)N2c2cc(C)ccc2C(C)C)ccc1COc1ncn(-c2ccc(OC(F)(F)F)cc2)n1 [F4, (Z)-1-(3-(2-Isopropyl-5-methylphenyl)-4-oxothiazolidin-2-ylidene)-3-(3-methoxy-4-(((1-(4-(trifluoromethoxy)phenyl)-1H-1,2,4-triazol-3-yl)oxy)methyl)phenyl)urea] | 50 to 100 | 50 to 100
12 | Cc1ccc(C(C)C)c(N2C(=O)CS/C2=N\C(=O)Nc2ccc(OCc3ncn(-c4ccc(OC(F)(F)F)cc4)n3)cc2C)c1 [F25, (Z)-1-(3-(2-Isopropyl-5-methylphenyl)-4-oxothiazolidin-2-ylidene)-3-(2-methyl-4-((1-(4-(trifluoromethoxy)phenyl)-1H-1,2,4-triazol-3-yl)methoxy)phenyl)urea] | 50 to 100 | 50 to 100
13 | COCc1ccc(C)cc1N1C(=O)CS/C1=N\C(=O)Nc1ccc(OCc2ncn(-c3ccc(OC(F)(F)F)cc3)n2)cc1OC [F34, (Z)-1-(2-Methoxy-4-((1-(4-(trifluoromethoxy)phenyl)-1H-1,2,4-triazol-3-yl)methoxy)phenyl)-3-(3-(2-(methoxymethyl)-5-methylphenyl)-4-oxothiazolidin-2-ylidene)urea] | 50 to 100 | 50 to 100
14 | CCCc1ccc(C)cc1N1C(=O)CS/C1=N\C(=O)Nc1ccc(OCc2ncn(-c3ccc(OC(F)(F)F)cc3)n2)nc1 [F45, (Z)-1-(3-(5-Methyl-2-propylphenyl)-4-oxothiazolidin-2-ylidene)-3-(6-((1-(4-(trifluoromethoxy)phenyl)-1H-1,2,4-triazol-3-yl)methoxy)pyridin-3-yl)urea] | 0 to 50 | 0
15 | Cc1ccc(C(C)C)c(N2C(=O)CS/C2=N\C(=O)Nc2ccc(OCc3ncn(-c4ccc(OC(F)(F)F)cc4)n3)nc2)c1 [F44, (Z)-1-(3-(2-Isopropyl-5-methylphenyl)-4-oxothiazolidin-2-ylidene)-3-(6-((1-(4-(trifluoromethoxy)phenyl)-1H-1,2,4-triazol-3-yl)methoxy)pyridin-3-yl)urea] | 50 to 100 | 50 to 100
16 | Cc1ccc(C(C)C)c(N2C(=O)CS/C2=N\C(=O)Nc2ccc(COc3ncn(-c4ccc(OC(F)(F)F)cc4)n3)cc2)c1 [F1, (Z)-1-(3-(2-isopropyl-5-methylphenyl)-4-oxothiazolidin-2-ylidene)-3-(4-(((1-(4-(trifluoromethoxy)phenyl)-1H-1,2,4-triazol-3-yl)oxy)methyl)phenyl)urea] | 50 to 100 | 50 to 100
17 | CCCc1ccc(C)cc1N1C(=O)CS/C1=N\C(=O)Nc1ccc(OCc2ncn(-c3ccc(OC(F)(F)F)cc3)n2)cc1C [F26, (Z)-1-(3-(5-Methyl-2-propylphenyl)-4-oxothiazolidin-2-ylidene)-3-(2-methyl-4-((1-(4-(trifluoromethoxy)phenyl)-1H-1,2,4-triazol-3-yl)methoxy)phenyl)urea] | 50 to 100 | 50 to 100
18 | CCCc1ccc(C)cc1N1C(=O)CS/C1=N\C(=O)Nc1ccc(COc2ncn(-c3ccc(OC(F)(F)F)cc3)n2)c(F)c1 [F7, (Z)-1-(3-Fluoro-4-(((1-(4-(trifluoromethoxy)phenyl)-1H-1,2,4-triazol-3-yl)oxy)methyl)phenyl)-3-(3-(5-methyl-2-propylphenyl)-4-oxothiazolidin-2-ylidene)urea] | 50 to 100 | 50 to 100
19 | CCCc1ccc(C)cc1N1C(=O)CS/C1=N\C(=O)Nc1ccc(OCc2ncn(-c3ccc(OC(F)(F)F)cc3)n2)cc1F [F23, (Z)-1-(2-Fluoro-4-((1-(4-(trifluoromethoxy)phenyl)-1H-1,2,4-triazol-3-yl)methoxy)phenyl)-3-(3-(5-methyl-2-propylphenyl)-4-oxothiazolidin-2-ylidene)urea] | 50 to 100 | 50 to 100
20 | CCCc1ccc(C)cc1N1C(=O)CS/C1=N\C(=O)Nc1ccc(COc2ncn(-c3ccc(OC(F)(F)F)cc3)n2)cn1 [F13, (Z)-1-(3-(5-Methyl-2-propylphenyl)-4-oxothiazolidin-2-ylidene)-3-(5-(((1-(4-(trifluoromethoxy)phenyl)-1H-1,2,4-triazol-3-yl)oxy)methyl)pyridin-2-yl)urea] | 50 to 100 | 50 to 100
